Reference: patent US20240376099A1, “COMPOUNDS AND COMPOSITIONS AS INHIBITORS OF ENDOSOMAL TOLL-LIKE RECEPTORS” (Novartis AG, priority 2016, published 2024)

What follows are compounds tested against T1, TLR8 (Homo sapiens, UniProt Q9NR97) (assay: huPBMC TLR8 Antagonist IL-6 TR-FRET Assay). Conditions: human PBMCs stimulated with ssRNA40 1 μg/ml (DOTAP), 14-16 hrs; IL-6 TR-FRET read-out.
T1 sequence (Q9NR97 27-1041): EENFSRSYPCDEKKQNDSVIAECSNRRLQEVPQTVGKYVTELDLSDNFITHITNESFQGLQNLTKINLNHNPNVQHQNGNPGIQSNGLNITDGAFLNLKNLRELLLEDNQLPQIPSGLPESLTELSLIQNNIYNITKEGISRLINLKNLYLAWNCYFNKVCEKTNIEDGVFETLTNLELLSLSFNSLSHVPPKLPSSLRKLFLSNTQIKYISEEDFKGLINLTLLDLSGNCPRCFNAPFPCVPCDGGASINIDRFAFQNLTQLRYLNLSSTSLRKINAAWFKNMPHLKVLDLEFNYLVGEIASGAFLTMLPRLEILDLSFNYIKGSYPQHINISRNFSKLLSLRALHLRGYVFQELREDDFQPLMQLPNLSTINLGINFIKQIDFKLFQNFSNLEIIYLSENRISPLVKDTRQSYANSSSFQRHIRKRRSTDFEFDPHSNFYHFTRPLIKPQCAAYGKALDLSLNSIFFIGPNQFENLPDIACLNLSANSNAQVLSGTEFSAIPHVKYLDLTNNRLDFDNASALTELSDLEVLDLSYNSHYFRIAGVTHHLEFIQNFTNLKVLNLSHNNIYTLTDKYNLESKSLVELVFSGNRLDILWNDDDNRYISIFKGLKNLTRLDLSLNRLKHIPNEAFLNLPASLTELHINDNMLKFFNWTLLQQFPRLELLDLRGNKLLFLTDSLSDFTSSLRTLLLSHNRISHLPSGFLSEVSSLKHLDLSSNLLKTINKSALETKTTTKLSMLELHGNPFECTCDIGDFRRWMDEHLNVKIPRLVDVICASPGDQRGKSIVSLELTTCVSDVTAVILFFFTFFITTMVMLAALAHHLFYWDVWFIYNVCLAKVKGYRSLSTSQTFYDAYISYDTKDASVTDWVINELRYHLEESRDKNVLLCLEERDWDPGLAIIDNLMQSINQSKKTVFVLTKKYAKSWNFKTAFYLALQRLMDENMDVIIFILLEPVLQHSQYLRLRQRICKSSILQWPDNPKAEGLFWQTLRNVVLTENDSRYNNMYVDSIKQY
Type: cell-based
Parameters: Fresh blood was collected from normal human donors; endogenous in cells; host or cells: human PBMCs from fresh donor blood
Summary of the method: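 Human PBMCs from fresh donor blood (150,000 cells/well) stimulated 14–16 h at 37 °C with DOTAP-complexed ssRNA40 (final 1 μg/ml for TLR8, 10 μg/mL for TLR7) or ODN2216 (final 0.3 μM, TLR9), 0.25% DMSO, ten-point 1/3 compound dilutions. Supernatant IL-6 read by HTRF (TLR8); IFNα by IFNα2b AlphaLISA (TLR7/TLR9).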

First: Cc1cc(N2CCc3c(c(C)nn3CC34CCC(N)(CC3)CC4)C2)c2ccncc2n1 [Compound No. 3, 4-((3-methyl-5-(2-methyl-1,7-naphthyridin-4-yl)-4,5,6,7-tetrahydro-1H-pyrazolo[4,3-c]pyridin-1-yl)methyl)bicyclo[2.2.2]octan-1-amine]
Second: Cc1cc(N2CCc3c(c(C)nn3CC34CCC(NC(=O)OC(C)(C)C)(CC3)CC4)C2)c2ccncc2n1 [Compound No. 147, tert-butyl (4-((3-methyl-5-(2-methyl-1,7-naphthyridin-4-yl)-4,5,6,7-tetrahydro-1H-pyrazolo[4,3-c]pyridin-1-yl)methyl)bicyclo[2.2.2]octan-1-yl)carbamate]
The IC50 of the first is lower: 55 nM for the first, > 10000 nM for the second.

`Cc1cc(N2CCc3c(c(C)nn3CC34CCC(NC5COC5)(CC3)CC4)C2)c2cnn(C)c2n1` [Compound No. 6, N-(4-((5-(1,6-dimethyl-1H-pyrazolo[3,4-b]pyridin-4-yl)-3-methyl-4,5,6,7-tetrahydro-1H-pyrazolo[4,3-c]pyridin-1-yl)methyl)bicyclo[2.2.2]octan-1-yl)oxetan-3-amine] and `Cc1cc(N2CCc3c(c(C)nn3CC34CCC(NC(=O)[C@@H]5COCCN5)(CC3)CC4)C2)c2cnn(C)c2n1` [Compound No. 8, (S)—N-(4-((5-(1,6-dimethyl-1H-pyrazolo[3,4-b]pyridin-4-yl)-3-methyl-4,5,6,7-tetrahydro-1H-pyrazolo[4,3-c]pyridin-1-yl)methyl)bicyclo[2.2.2]octan-1-yl)morpholine-3-carboxamide] are within 1.5-fold of each other in IC50: 135 nM for the first, 166 nM for the second.

Compared with `Cc1cc(N2CCc3c(c(C)nn3CC34CCC(NC(=O)[C@H]5COCCN5)(CC3)CC4)C2)c2cnn(C)c2n1` [Compound No. 9, (R)—N-(4-((5-(1,6-dimethyl-1H-pyrazolo[3,4-b]pyridin-4-yl)-3-methyl-4,5,6,7-tetrahydro-1H-pyrazolo[4,3-c]pyridin-1-yl)methyl)bicyclo[2.2.2]octan-1-yl)morpholine-3-carboxamide], `Cc1cc(N2CCc3c(c(C)nn3CC34CCC(NC(=O)CO)(CC3)CC4)C2)c2cnn(C)c2n1` [Compound No. 135, N-(4-((5-(1,6-dimethyl-1H-pyrazolo[3,4-b]pyridin-4-yl)-3-methyl-4,5,6,7-tetrahydro-1H-pyrazolo[4,3-c]pyridin-1-yl)methyl)bicyclo[2.2.2]octan-1-yl)-2-hydroxyacetamide] is 42-fold higher in IC50: 201 nM for the first, 8440 nM for the second.

Going from `Cc1nc(N2CCc3c(c(C)nn3CC34CCC(N5CC6(COC6)C5)(CC3)CC4)C2)c2c(n1)c(C)nn2C` [Compound No. 10, 6-(4-((3-methyl-5-(1,3,5-trimethyl-1H-pyrazolo[4,3-d]pyrimidin-7-yl)-4,5,6,7-tetrahydro-1H-pyrazolo[4,3-c]pyridin-1-yl)methyl)bicyclo[2.2.2]octan-1-yl)-2-oxa-6-azaspiro[3.3]heptane] to `Cc1nc(N2CCc3c(c(C)nn3CC34CCC(N5CCCC5)(CC3)CC4)C2)c2c(n1)c(C)nn2C` [compound 17, 1,3,5-trimethyl-7-(3-methyl-1-((4-(pyrrolidin-1-yl)bicyclo[2.2.2]octan-1-yl)methyl)-6,7-dihydro-1H-pyrazolo[4,3-c]pyridin-5(4H)-yl)-1H-pyrazolo[4,3-d]pyrimidine], the IC50 rises from 48 nM to 199 nM (4.1-fold). The first is the more potent here.

First: Cc1nc(N2CCc3c(c(C)nn3CC34CCC(N)(CC3)CC4)C2)c2c(n1)c(C)nn2C [Compound No. 26, 4-((3-methyl-5-(1,3,5-trimethyl-1H-pyrazolo[4,3-d]pyrimidin-7-yl)-4,5,6,7-tetrahydro-1H-pyrazolo[4,3-c]pyridin-1-yl)methyl)bicyclo[2.2.2]octan-1-amine]
Second: COCCNC12CCC(Cn3nc(C)c4c3CCN(c3nc(C)nc5c(C)nn(C)c35)C4)(CC1)CC2 [compound 18, N-(2-methoxyethyl)-4-((3-methyl-5-(1,3,5-trimethyl-1H-pyrazolo[4,3-d]pyrimidin-7-yl)-4,5,6,7-tetrahydro-1H-pyrazolo[4,3-c]pyridin-1-yl)methyl)bicyclo[2.2.2]octan-1-amine]
The IC50 of the first is 3.8-fold higher: 289 nM for the first, 77 nM for the second. The second is the more potent here.

Going from `Cc1cc(N2CCc3c(c(C)nn3CC34CCC(N(C)C)(CC3)CC4)C2)c2cnn(C)c2n1` [Compound No. 43, 4-((5-(1,6-dimethyl-1H-pyrazolo[3,4-b]pyridin-4-yl)-3-methyl-4,5,6,7-tetrahydro-1H-pyrazolo[4,3-c]pyridin-1-yl)methyl)-N,N-dimethylbicyclo[2.2.2]octan-1-amine] to `[2H]C([2H])([2H])n1ncc2c(N3CCc4c(c(C)nn4CC45CCC(N)(CC4)CC5)C3)cc(C)nc21` [Compound No. 140, 4-((3-methyl-5-(6-methyl-1-(methyl-d3)-1H-pyrazolo[3,4-b]pyridin-4-yl)-4,5,6,7-tetrahydro-1H-pyrazolo[4,3-c]pyridin-1-yl)methyl)bicyclo[2.2.2]octan-1-amine], the IC50 rises from 51 nM to 331 nM (6.5-fold).

Going from `Cc1cc(N2CCc3c(c(C)nn3CC34CCC(N5CCN(C)C(=O)C5)(CC3)CC4)C2)c2cnn(C)c2n1` [Compound No. 104, 4-(4-((5-(1,6-dimethyl-1H-pyrazolo[3,4-b]pyridin-4-yl)-3-methyl-4,5,6,7-tetrahydro-1H-pyrazolo[4,3-c]pyridin-1-yl)methyl)bicyclo[2.2.2]octan-1-yl)-1-methylpiperazin-2-one] to `Cc1cc(N2CCc3c(c(C)nn3CC34CCC(N5CCN(C)CC5=O)(CC3)CC4)C2)c2cnn(C)c2n1` [Compound No. 108, 1-(4-((5-(1,6-dimethyl-1H-pyrazolo[3,4-b]pyridin-4-yl)-3-methyl-4,5,6,7-tetrahydro-1H-pyrazolo[4,3-c]pyridin-1-yl)methyl)bicyclo[2.2.2]octan-1-yl)-4-methylpiperazin-2-one], the IC50 falls from 389 nM to 44 nM (8.8-fold).

`Cc1cc(N2CCc3c(c(C)nn3CC34CCC(n5ccnc5)(CC3)CC4)C2)c2cnn(C)c2n1` [Compound No. 119, 1-((4-(1H-imidazol-1-yl)bicyclo[2.2.2]octan-1-yl)methyl)-5-(1,6-dimethyl-1H-pyrazolo[3,4-b]pyridin-4-yl)-3-methyl-4,5,6,7-tetrahydro-1H-pyrazolo[4,3-c]pyridine] and `Cc1cc(N2CCc3c(c(C)nn3CC34CCC(NC(=O)CN5CC(F)C5)(CC3)CC4)C2)c2cnn(C)c2n1` [Compound No. 133, N-(4-((5-(1,6-dimethyl-1H-pyrazolo[3,4-b]pyridin-4-yl)-3-methyl-4,5,6,7-tetrahydro-1H-pyrazolo[4,3-c]pyridin-1-yl)methyl)bicyclo[2.2.2]octan-1-yl)-2-(3-fluoroazetidin-1-yl)acetamide] are within 1.5-fold of each other in IC50: 1180 nM for the first, 806 nM for the second.

`Cc1cc(N2CCc3c(c(C)nn3CC34CCC(NC(=O)CN5CC(O)C5)(CC3)CC4)C2)c2cnn(C)c2n1` [Compound No. 136, N-(4-((5-(1,6-dimethyl-1H-pyrazolo[3,4-b]pyridin-4-yl)-3-methyl-4,5,6,7-tetrahydro-1H-pyrazolo[4,3-c]pyridin-1-yl)methyl)bicyclo[2.2.2]octan-1-yl)-2-(3-hydroxyazetidin-1-yl)acetamide] and `Cc1nc(N2CCc3c(c(C)nn3CC34CCC(N5CCOCC5)(CC3)CC4)C2)c2cnn(C)c2n1` [compound 19, 4-(4-((5-(1,6-dimethyl-1H-pyrazolo[3,4-d]pyrimidin-4-yl)-3-methyl-4,5,6,7-tetrahydro-1H-pyrazolo[4,3-c]pyridin-1-yl)methyl)bicyclo[2.2.2]octan-1-yl)morpholine] are within 1.5-fold of each other in IC50: 178 nM for the first, 186 nM for the second.

Compared with `Cc1nn(CC23CCC(N)(CC2)CC3)c2c1CN(c1nc(N)nc3c1cnn3C)CC2` [compound 13, 4-(1-((4-aminobicyclo[2.2.2]octan-1-yl)methyl)-3-methyl-6,7-dihydro-1H-pyrazolo[4,3-c]pyridin-5(4H)-yl)-1-methyl-1H-pyrazolo[3,4-d]pyrimidin-6-amine], `Cc1nn(CC23CCC(N)(CC2)CC3)c2c1CN(c1nc(Cl)nc3cnn(C)c13)CC2` [compound 15, 4-((5-(5-chloro-1-methyl-1H-pyrazolo[4,3-d]pyrimidin-7-yl)-3-mehtyl-4,5,6,7-tetrahydro-1H-pyrazolo[4,3-c]pyridin-1-yl)methyl)bicyclo[2.2.2]octan-1-amine] is 6.7-fold lower in IC50: 1350 nM for the first, 203 nM for the second.

`Cc1nc(N2CCc3c(c(C)nn3CC34CCC(N5CCCC5)(CC3)CC4)C2)c2cnn(C)c2n1` [compound 16, 1,6-dimethyl-4-(3-methyl-1-((4-(pyrrolidin-1-yl)bicyclo[2.2.2]octan-1-yl)methyl)-6,7-dihydro-1H-pyrazolo[4,3-c]pyridin-5(4H)-yl)-1H-pyrazolo[3,4-d]pyrimidine] was tested, and the IC50 was 443 nM.
